The text below walks through data of US7504382B2 (priority 2003, dated 2009).

Each structure is given as a SMILES string. Converted amounts (≈) assume the structure as drawn. Square brackets hold non-standard residues; d marks the D form. Peptide text beside a SMILES is read from it. * marks the point of attachment. ξ: configuration not given here. ξE = NC(CCC(=O)O)C(=O)O; Cbz = O=C(OCc1ccccc1)*; CH2F = FC*

Series [1] concerns SARS-CoV infected Vero-cells. It is filed as cell-based. The conditions noted are these: concentration of 1 μM.
The subject of series [2] is Vero-cells.
Series [3] deals with SARS-CoV infected Vero 76 cells. It is filed as cell-based. The conditions noted are these: for EC50 (protection from virus-induced cell death): SARS-CoV infected Vero 76 cells, 72 h, neutral red; for SI value: from TC50 and EC50, indication of potential therapeutical index.
In series [4] the test system is uninfected Vero 76 cells.

As to `CC(C)CC(NC(=O)C(NC(=O)OCc1ccccc1)C(C)C)C(=O)NC(CCC(=O)N(C)C)C(=O)CF` (stereo not drawn) [Example 7, 4-(Cbz-Val-Leu-Amido)-6-Fluoro-5-Oxo-Hexanoic Acid Dimethylamide] (Cbz-Val-Leu-Glu(NMe2)-CH2F; configuration not given here), in series [1], the “inhibition of the cytopathic effect (CPE) of SARS-CoV” value is recorded as 94.5%. Besides, in series [2], the “toxicity at the same concentration” value is listed as “no toxicity was observed”.
The like results for `CNC(=O)CCC(NC(=O)[C@H](CC(C)C)NC(=O)OCc1ccccc1)C(=O)CF` (stereo partly drawn) [Example 12, 4-(Cbz-Leu-Amido)-6-Fluoro-5-Oxo-Hexanoic Acid Methylamide] (Cbz-Leu-[ξE](NHMe)-CH2F) were, in that order, 100% and “no toxicity was observed”.
As to `CC(C)[C@H](NC(=O)OCc1ccccc1)C(=O)NC(CC(=O)N(C)C)C(=O)CF` (stereo partly drawn) [Example 17, 3-(Cbz-Val-Amido)-5-Fluoro-4-Oxo-Pentanoic Acid Dimethylamide], in series [3], the “EC50 (protection from virus-induced cell death)” value came out at 2.1 µg/mL (≈ 5.13 µM) and the SI value is recorded as more than 24. In addition, the “TC50 (toxicity of the compound)” value in series [4] is more than 50 µg/mL.
`CC(C)[C@H](NC(=O)OCc1ccccc1)C(=O)NC(CCC(=O)N(C)C)C(=O)CF` (stereo partly drawn) [Example 24, 4-(Cbz-Val-Amido)-6-Fluoro-5-Oxo-Hexanoic Acid Dimethylamide] (Cbz-Val-[ξE](NMe2)-CH2F): in series [3], the “EC50 (protection from virus-induced cell death)” value was found to be 0.02 µg/mL (≈ 0.0472 µM) and the SI value was more than 500. The “inhibition of the cytopathic effect (CPE) of SARS-CoV” value in series [1] stood at 100%. In addition, in series [4], the “TC50 (toxicity of the compound)” value was more than 10 µg/mL. Further, the “toxicity at the same concentration” value in series [2] is given as “no toxicity was observed”.
